Test results as given in US12552753B2, “Methods and compositions for targeting Tregs using CCR8 inhibitors” (Nanjing Immunophage Biomedical Co., Ltd., priority 2020, dated 2026).
Counter-ions that a name gives are not always drawn.

molecular target: CCR8 (Homo sapiens, UniProt P51685); assay: Tango assay (Tango-CCR8-Gal4-CHO-K1 cells, CCL1-stimulated, ONE-Glo luminescence); settings: Tango Assay IC50, Inhibition of CCR8 Tango cell in vitro
Sequence (P51685 whole entry, the tested form may be a part): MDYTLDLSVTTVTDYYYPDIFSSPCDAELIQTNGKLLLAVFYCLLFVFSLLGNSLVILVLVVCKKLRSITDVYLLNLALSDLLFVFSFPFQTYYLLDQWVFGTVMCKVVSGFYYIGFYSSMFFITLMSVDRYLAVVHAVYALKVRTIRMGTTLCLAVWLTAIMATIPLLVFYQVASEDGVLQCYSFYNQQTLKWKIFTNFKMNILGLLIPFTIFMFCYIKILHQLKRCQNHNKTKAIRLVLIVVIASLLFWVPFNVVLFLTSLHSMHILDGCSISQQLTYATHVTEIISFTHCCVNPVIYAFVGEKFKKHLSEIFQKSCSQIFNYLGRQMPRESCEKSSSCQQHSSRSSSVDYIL

**Q.** For Cc1ccccc1C(=O)Nc1ccc(S(=O)(=O)N[C@H](C)C2CCNCC2)cc1C(N)=O [Compound 194, (R)-N-(2-carbamoyl-4-(N-(1-(piperidin-4-yl)ethyl)sulfamoyl)phenyl)-2-methylbenzamide], which IC50 is on record?
**A.** > 10000 nM

**Q.** Which IC50 does the source give for Cc1ccccc1C(=O)Nc1ccc(S(=O)(=O)N[C@H](C)C2CCNCC2)cc1Br [Compound 192A, (R)-N-(2-bromo-4-(N-(1-(piperidin-4-yl)ethyl)sulfamoyl)phen-yl)-2-methylbenzamide hydrochloride] here?
**A.** 26 nM

**Q.** Which IC50 does the source give for Cc1ccccc1C(=O)Nc1ccc(S(=O)(=O)NC2CCc3nc(N)sc3C2)c2ccccc12 (stereo not drawn) [Compound 85, N-(4-(N-(2-amino-4,5,6,7-tetrahydrobenzo[d]thia-zol-6-yl)sulfamoyl)naphthalen-1-yl)-2-methylbenzamide] here?
**A.** 351 nM

**Q.** Cc1cc(S(=O)(=O)N[C@H](C)C2CCNCC2)ccc1NC(=O)Cc1ccccc1 [Compound 207A, (R)-N-(2-methyl-4-(N-(1-(piperidin-4-yl)ethyl)sulfamoyl)phenyl)-2-phenylacetamide hydrochloride] was tested. Which IC50 did it give?
**A.** 40 nM

**Q.** CCCC(=O)N1CCCC(C(=O)NS(=O)(=O)c2ccc(NC(=O)c3ccccc3C)c3ccccc23)C1 (stereo not drawn) [Compound 9, 1-butyryl-N-((4-(2-methylbenzamido)naph-thalen-1-yl)sulfonyl)piperidine-3-carboxamide] was tested. Which IC50 did it give?
**A.** > 10000 nM

**Q.** How did the IC50 turn out when Cc1ccccc1C(=O)Nc1ccc(S(=O)(=O)NC(C)C2CCCN(C(=O)CNC(=O)OC(C)(C)C)C2)c2ccccc12 (single isomer, unassigned) [Compound 155B, tert-butyl (2-(3-(1-(4-(2-methylbenzamido)naph-thalene-1-sulfonamido)ethyl)piper-idin-1-yl)-2-oxoethyl)carbamate] was run?
**A.** > 10000 nM

**Q.** Which IC50 does the source give for Cc1cc(S(=O)(=O)N[C@H](C)C2CCNCC2)ccc1NC(=O)c1ccncc1C [Compound 251A, (R)-3-methyl-N-(2-methyl-4-(N-(1-(piperidin-4-yl)ethyl)sulfamoyl)phenyl)isonicotinamide hydrochloride] here?
**A.** > 100000 nM

**Q.** With Cc1ccccc1C(=O)Nc1ccc(S(=O)(=O)NC(C)C(C)C)c2ccccc12 (stereo not drawn) [Compound 81, 2-methyl-N-(4-(N-(3-methylbutan-2-yl)sulfamoyl)naphthalen-1-yl)benzamide] as the compound, how does the IC50 read?
**A.** 142 nM

**Q.** For Cc1cc(S(=O)(=O)N[C@H](C)C2CCN(C(=O)OC(C)(C)C)CC2)c(C)cc1NC(=O)c1ccccc1C [Compound 285, tert-butyl (R)-4-(1-((2,5-dimethyl-4-(2-methylbenzamido)phenyl)sulfonamido)ethyl)piperidine-1-carboxylate], which IC50 is on record?
**A.** > 100000 nM

**Q.** For Cc1ccccc1C(=O)Nc1ccc(S(=O)(=O)N[C@H](C)C2CCN(C)CC2)c(F)c1C [Compound 278, (R)-N-(3-fluoro-2-methyl-4-(N-(1-(1-methylpiperidin-4-yl)ethyl)sulfamoyl)phenyl)-2-methylbenzamide hydrochloride], which IC50 is on record?
**A.** 6 nM

**Q.** For CC(NS(=O)(=O)c1ccc2[nH]c(=O)ccc2c1)C1CC2CCC1CC2 (stereo not drawn) [Compound 284, N-(1-(bicyclo[2.2.2]octan-2-yl)ethyl)-2-oxo-1,2-dihydroquinoline-6-sulfonamide], which IC50 is on record?
**A.** > 100000 nM

**Q.** For Cc1cc(S(=O)(=O)N[C@H](C)C2CCNCC2)ccc1NC(=O)C(C)(C)C [Compound 209A, (R)-N-(2-methyl-4-(N-(1-(piperidin-4-yl)ethyl)sulfamoyl)phenyl)pivalamide hydrochloride], which IC50 is on record?
**A.** 1100 nM

**Q.** For Cc1cc(S(=O)(=O)NC(C)C2CC3CCC2CC3)c(C)cc1NC(=O)c1ccccc1C (stereo not drawn) [Compound 170, N-(4-(N-(1-(bicyclo[2.2.2]octan-2-yl)ethyl)sulfamoyl)-2,5-dimethylphenyl)-2-methylbenzamide], which IC50 is on record?
**A.** 3.7 nM

**Q.** Which IC50 does the source give for Cc1cc(S(=O)(=O)N[C@H](C)C2CCN(C)CC2)ccc1NC(=O)c1cccc2c1CCC2 [Compound 296, (R)-N-(2-methyl-4-(N-(1-(1-methylpiperidin-4-yl)ethyl)sulfamoyl)phenyl)-2,3-dihydro-1H-indene-4-carboxamide] here?
**A.** 2 nM

**Q.** For Cc1ccccc1C(=O)Nc1ccc(S(=O)(=O)NC(C)c2cccc(C(=O)O)c2)cc1 (stereo not drawn) [Compound 54, 3-(1-(4-(2-methylbenzamido)phe-nylsulfonamido)ethyl) benzoic acid], which IC50 is on record?
**A.** > 10000 nM

**Q.** For COC(=O)CN1CCCCC1C(C)NS(=O)(=O)c1ccc(NC(=O)c2ccccc2C)c2ccccc12 (single isomer, unassigned) [Compound 70A, methyl 2-(2-(1-(4-(2-methylbenzamido)naph-thalene-1-sulfonamido)ethyl)piper-idin-1-yl)acetate], which IC50 is on record?
**A.** 116 nM

**Q.** For CCC(NS(=O)(=O)c1ccc(NC(=O)c2ccccc2C)c(C)c1)C1CCNCC1 (stereo not drawn) [Compound 223A, 2-methyl-N-(2-methyl-4-(N-(1-(piperidin-4-yl)propyl)sulfamoyl)phenyl)benzamide hydrochloride], which IC50 is on record?
**A.** 73 nM

**Q.** Cc1ccccc1C(=O)Nc1ccc(S(=O)(=O)NC(C)C2CC3CCC2CC3)c(C)c1 (stereo not drawn) [Compound 163, N-(4-(N-(1-(bicyclo[2.2.2]octan-2-yl)ethyl)sulfamoyl)-3-methylphenyl)-2-methylbenzamide] was tested. Which IC50 did it give?
**A.** 86 nM

**Q.** How did the IC50 turn out when Cc1ccccc1C(=O)Nc1ccc(S(=O)(=O)NC(C)C2CCCCCC2)c2ccccc12 (stereo not drawn) [Compound 76, N-(4-(N-(1-cycloheptylethyl)sulfamo-yl)naphthalen-1-yl)-2-methylbenzamide] was run?
**A.** 1.8 nM

**Q.** For Cc1ccccc1C(=O)Nc1ccc(S(=O)(=O)Nc2ccc3c(c2)C(N(C)C(=O)CN(C)C)CCC3)c2ccccc12 (stereo not drawn) [Compound 97, N-(4-(N-(8-(2-(dimethylamino)-N-methylacetamido)-5,6,7,8-tetrahydronaphthalen-2-yl)sulfamoyl)naphthalen-1-yl)-2-methylbenzamide], which IC50 is on record?
**A.** > 10000 nM

**Q.** CCCC(=O)N1CCC(NS(=O)(=O)c2ccc(-c3nc4ccccc4[nH]3)c3ccccc23)CC1 [Compound 107, 4-(1H-benzo[d]imidazol-2-yl)-N-(1-butyrylpiperidin-4-yl)naphthalene-1-sulfonamide] was tested. Which IC50 did it give?
**A.** 913 nM

**Q.** How did the IC50 turn out when CC(NS(=O)(=O)c1ccc2c(c1)C(=O)NCC2)C1CC2CCC1CC2 (stereo not drawn) [Compound 134, N-(1-(bicyclo[2.2.2]octan-2-yl)ethyl)-1-oxo-1,2,3,4-tetrahydroisoquinoline-7-sulfonamide] was run?
**A.** > 10000 nM

**Q.** Which IC50 does the source give for Cc1cc(S(=O)(=O)NC(C)C(C)(C)CN(C)C)ccc1NC(=O)c1ccccc1C (stereo not drawn) [Compound 294, N-(4-(N-(4-(dimethylamino)-3,3-dimethylbutan-2-yl)sulfamoyl)-2-methylphenyl)-2-methylbenzamide hydrochlroide, hydrochloride] here?
**A.** > 100000 nM

**Q.** How did the IC50 turn out when Cc1ccccc1C(=O)Nc1ccc(S(=O)(=O)NC2CCNc3ccccc32)c2ccccc12 (stereo not drawn) [Compound 30, 2-methyl-N-(4-(N-(1,2,3,4-tetrahydroquinolin-4-yl)sulfamoyl)naphthalen-1-yl)benzamide] was run?
**A.** 73 nM

**Q.** For CCCN1CCN(c2cccc(C(=O)NS(=O)(=O)c3ccc(NC(=O)c4ccccc4C)c4ccccc34)c2)CC1 [Compound 11, 2-methyl-N-(4-(N-(3-(4-propylpiperazin-1-yl)benzoyl)sulfamoyl)naphthalen-1-yl)benzamide], which IC50 is on record?
**A.** > 10000 nM

**Q.** With Cc1ccccc1C(=O)Nc1ccc(S(=O)(=O)N[C@H](C)C2CCN(C)CC2)c(C)c1Cl [Compound 308, (R)-N-(2-chloro-3-methyl-4-(N-(1-(1-methylpiperidin-4-yl)ethyl)sulfamoyl)phenyl)-2-methylbenzamide] as the compound, how does the IC50 read?
**A.** > 100000 nM

**Q.** For Cc1ccccc1C(=O)Nc1ccc(S(=O)(=O)N[C@H](C)C2CCN(C(=O)OC(C)(C)C)CC2)cc1Br [Compound 191, (R)-tert-butyl 4-(1-(3-bromo-4-(2-methylbenzamido)phen-ylsulfonamido)ethyl)pi-peridine-1-carboxylate], which IC50 is on record?
**A.** > 10000 nM

**Q.** For Cc1ccccc1C(=O)Nc1ccc(S(=O)(=O)NC2CCCc3ccccc32)c2ccccc12 (stereo not drawn) [Compound 28, 2-methyl-N-(4-(N-(1,2,3,4-tetrahydronaphthalen-1-yl)sulfamoyl)naphtha-len-1-yl)benzamide], which IC50 is on record?
**A.** 19 nM

**Q.** Cc1ccccc1C(=O)Nc1ccc(S(=O)(=O)N[C@H](C)C2CCN(C)CC2)c(Cl)c1Cl [Compound 275, (R)-N-(2,3-dichloro-4-(N-(1-(1-methylpiperidin-4-yl)ethyl)sulfamoyl)phenyl)-2-methylbenzamide] was tested. Which IC50 did it give?
**A.** 46 nM

**Q.** CC(NS(=O)(=O)c1ccc2c(c1)CCC2NC(=O)c1ccccc1)C1CCCCC1 (stereo not drawn) [Compound 88, N-(5-(N-(1-cyclohexylethyl)sulfam-oyl)-2,3-dihydro-1H-inden-1-yl)benzamide] was tested. Which IC50 did it give?
**A.** 1100 nM

**Q.** How did the IC50 turn out when Cc1ccccc1C(=O)Nc1cc(Cl)c(S(=O)(=O)N[C@H](C)C2CCN(C)CC2)cc1Cl [Compound 306, (R)-N-(2,5-dichloro-4-(N-(1-(1-methylpiperidin-4-yl)ethyl)sulfamoyl)phenyl)-2-methylbenzamide hydrochloride] was run?
**A.** 6 nM

**Q.** For Cc1ccccc1C(=O)Nc1ccc(S(=O)(=O)N[C@H](C)C2CCN(C)CC2)c(F)c1Cl [Compound 264, (R)-N-(2-chloro-3-fluoro-4-(N-(1-(1-methylpiperidin-4-yl)ethyl)sulfamoyl)phenyl)-2-methylbenzamide], which IC50 is on record?
**A.** 11 nM

**Q.** Cc1cc(S(=O)(=O)N[C@H](C)C2CCNCC2)ccc1NC(=O)Nc1ccccc1 [Compound 236A, (R)-3-methyl-4-(3-phenylureido)-N-(1-(piperidin-4-yl)ethyl)benzenesulfonamide hydrochloride] was tested. Which IC50 did it give?
**A.** 158 nM

**Q.** How did the IC50 turn out when Cc1ccc(C(=O)Nc2ccc(S(=O)(=O)N[C@H](C)C3CCN(C)CC3)cc2C)c(C)c1 [Compound 277, (R)-2,4-dimethyl-N-(2-methyl-4-(N-(1-(1-methylpiperidin-4-yl)ethyl)sulfamoyl)phenyl) benzamide] was run?
**A.** 2 nM

same assay, conditions: read-out: Tango Assay IC50, Inhibition of CCR8 Tango cell in vitro

**Q.** Which IC50 does the source give for Cc1ccccc1C(=O)Nc1ccc(S(=O)(=O)NC(C)C2CCCN(C(=O)[C@H](C)NC(=O)OC(C)(C)C)C2)c2ccccc12 (single isomer, unassigned) [Compound 157D] here?
**A.** > 10000 nM

**Q.** Cc1ccccc1C(=O)Nc1ccc(S(=O)(=O)NC(C)C2CCCN(C(=O)[C@H](C)NC(=O)OC(C)(C)C)C2)c2ccccc12 (single isomer, unassigned) [Compound 157C] was tested. Which IC50 did it give?
**A.** > 10000 nM
